Source: ChEMBL document CHEMBL4483862, “Open-source discovery of chemical leads for next-generation chemoprotective antimalarials” (2018)
pIC50: −log10 of the molar value.

System: Plasmodium berghei
Assay: Luciferase/luciferin-expressing antifolate-resistant parasites were used to infect a culture of HepG2 cells that were pre-incubated with compounds. Infected hepatocytes emit light due to the luciferase reaction. Assay results are presented as the percent inhibition of light emission compared to control. […]
Assay type: functional
Settings: sporozoite; for IC90: read-out: LUCIFERASE INFECTION ASSAY - IC90
[1] = read-out: LUCIFERASE INFECTION ASSAY - IC50

Structure (SMILES)	IC90 [µM]	pIC50 [1]	also measured
Nc1nc(-c2c[nH]c3ccccc23)c(-c2ccccc2)s1	> 10		pIC50 (PBLUC_HILL_SLOPE 2.51, PBLUC_R_SQUARED 0.619, read-out: LUCIFERASE INFECTION ASSAY - IC50): 5.15
CCC(C(=O)Nc1nc(C)c(Cc2ccc3c(c2)OCO3)s1)c1ccccc1 (stereo unspecified)	> 10	< 5.00	
O=C(C1=NNCC1c1ccccc1)c1cc2ccccc2c2ccccc12 (stereo unspecified)	> 9.42		pIC50 (HEPG2TOX_HILL_SLOPE 2.61, HEPG2TOX_R_SQUARED 0.965, PBLUC_HILL_SLOPE 1.24, PBLUC_R_SQUARED 0.535, read-out: LUCIFERASE INFECTION ASSAY - IC50): 5.50
Cc1cc(/C=C/c2cc(C(=O)O)c3ccccc3n2)cc(C)c1OC(F)F	3.87		pIC50 (HEPG2TOX_HILL_SLOPE 0.464, HEPG2TOX_R_SQUARED 0.656, PBLUC_HILL_SLOPE 13.4, PBLUC_R_SQUARED 0.624, read-out: LUCIFERASE INFECTION ASSAY - IC50): 5.48
Fc1cccc(-c2nccc3n[nH]c(-c4cccc(OC(F)(F)F)c4)c23)c1	> 10		pIC50 (PBLUC_HILL_SLOPE 1.45, PBLUC_R_SQUARED 0.246, read-out: LUCIFERASE INFECTION ASSAY - IC50): 5.27
O=C(Cn1c(CN2CCCCC2)nc2ccccc2c1=O)Nc1ccccc1Oc1ccccc1	> 10	< 5.00	
COc1ccc(-n2nc(C)c3c2NC(=O)CC3c2ccc(O)cc2)cc1 (stereo unspecified)	> 9.45	< 5.02	
C=CCNC(=S)N1CCc2c([nH]c3ccccc23)C1C(F)(F)F (stereo unspecified)	> 9.72	< 5.01	
CCOc1cccc(C2Nc3ccccc3C(=O)N2C2CC2)c1O (stereo unspecified)	9.55		pIC50 (HEPG2TOX_HILL_SLOPE 0.644, HEPG2TOX_R_SQUARED 0.857, PBLUC_HILL_SLOPE 2.2, PBLUC_R_SQUARED 0.323, read-out: LUCIFERASE INFECTION ASSAY - IC50): 5.45
CCOC(=O)c1cc(C#N)c(N2CCN(C(=O)Nc3cccc(C(F)(F)F)c3)CC2)nc1C(F)(F)F	> 6.4		pIC50 (PBLUC_HILL_SLOPE 16, PBLUC_R_SQUARED 0.406, read-out: LUCIFERASE INFECTION ASSAY - IC50): 5.20
COc1cccc(-c2cc3c(Nc4cccc(C(C)C)c4)nccc3[nH]2)c1	2.26		pIC50 (HEPG2TOX_HILL_SLOPE 2.2, HEPG2TOX_R_SQUARED 0.959, PBLUC_HILL_SLOPE 4.36, PBLUC_R_SQUARED 0.354, read-out: LUCIFERASE INFECTION ASSAY - IC50): 5.87
NC(Cc1ccccc1)c1csc(Nc2ccc(C(=O)c3ccccc3)cc2)n1 (stereo unspecified)	1.15		pIC50 (HEPG2TOX_HILL_SLOPE 7.62, HEPG2TOX_R_SQUARED 0.882, PBLUC_HILL_SLOPE 15.6, PBLUC_R_SQUARED 0.562, read-out: LUCIFERASE INFECTION ASSAY - IC50): 6.00
CC(=O)Nc1cccc(-c2ccc3ncc(-c4ccc5c(c4)OCO5)n3n2)c1	3.94		pIC50 (HEPG2TOX_HILL_SLOPE 2.37, HEPG2TOX_R_SQUARED 0.964, PBLUC_HILL_SLOPE 13.4, PBLUC_R_SQUARED 0.492, read-out: LUCIFERASE INFECTION ASSAY - IC50): 5.48
C=S(=O)(NC(=O)CSc1nc2ccccc2s1)c1ccc(Cl)cc1 (stereo unspecified)	> 8.31		pIC50 (FFLUC_HILL_SLOPE 11.2, FFLUC_R_SQUARED 0.126, read-out: LUCIFERASE INFECTION ASSAY - IC50): < 5.08
O=C(NCc1ccc(-n2cccn2)cc1)c1[nH]nc(C2CC2)c1Br	1.52	5.90	
COCCNC(=S)Nc1ccccc1CC(c1c[nH]c2ccccc12)c1c[nH]c2ccccc12	> 10		pIC50 (PBLUC_HILL_SLOPE 10.3, PBLUC_R_SQUARED 0.121, read-out: LUCIFERASE INFECTION ASSAY - IC50): 5.03
COCCCn1c(C)cc(C(=O)CSc2nc3scc(-c4ccccc4)c3c(=O)n2C)c1C	> 10		pIC50 (FFLUC_HILL_SLOPE 7.71, FFLUC_R_SQUARED 0.356, PBLUC_HILL_SLOPE 2.63, PBLUC_R_SQUARED 0.68, read-out: LUCIFERASE INFECTION ASSAY - IC50): 5.19
CCCCCCc1ccc(-c2csc(NC(=O)CSc3nnc(C(F)(F)F)n3C)n2)cc1	> 10	< 5.00	
FC(F)(F)c1cnc(/C=N/Nc2ncc(C(F)(F)F)cc2Cl)c(Cl)c1	3.13	5.57	
N#Cc1ccccc1NC(=O)CSc1nc2scc(-c3ccccc3Cl)c2c(=O)n1CCc1ccccc1	9.03		pIC50 (FFLUC_HILL_SLOPE 9.25, FFLUC_R_SQUARED 0.857, PBLUC_HILL_SLOPE 5.48, PBLUC_R_SQUARED 0.817, read-out: LUCIFERASE INFECTION ASSAY - IC50): 5.22
O=C(Nc1ccc(F)cc1F)c1nnsc1S(=O)(=O)c1ccc(Cl)cc1	> 7.94	< 5.10	
CNC(=O)Cc1ccc(NC(=O)CCSC)cc1	> 10	< 5.00	

Structure (SMILES)	IC90 [µM]	pIC50 [1]	also measured
OC1CCC(Nc2nn3c(-c4cccc(OC(F)(F)F)c4)cnc3s2)CC1 (stereo unspecified)	> 8.28		pIC50 (FFLUC_HILL_SLOPE 6.8, FFLUC_R_SQUARED 0.0322, read-out: LUCIFERASE INFECTION ASSAY - IC50): < 5.08
COCCCNc1nnc(Cc2ccc(Cl)cc2)c(O)n1	> 10.7		pIC50 (HEPG2TOX_HILL_SLOPE 2.55, HEPG2TOX_R_SQUARED 0.699, PBLUC_HILL_SLOPE 0.604, PBLUC_R_SQUARED 0.236, read-out: LUCIFERASE INFECTION ASSAY - IC50): 5.19
CO/N=C1\CC(C)(C)Cc2c(-c3ccn(C(=O)Nc4ccc(Cl)cc4)n3)sc(SC)c21	> 6.95	< 5.16	
O=[N+]([O-])c1ccc(C(O)CNc2ccccc2S(=O)(=O)C(F)(F)F)cc1 (stereo unspecified)	1.21		pIC50 (HEPG2TOX_HILL_SLOPE 1.62, HEPG2TOX_R_SQUARED 0.763, PBLUC_HILL_SLOPE 5.41, PBLUC_R_SQUARED 0.533, read-out: LUCIFERASE INFECTION ASSAY - IC50): 6.09
CNC(=O)CN(c1cc(OCCOC)c(Cl)cc1Cl)S(=O)(=O)c1ccc(OC)cc1	0.87		pIC50 (HEPG2TOX_HILL_SLOPE 3.52, HEPG2TOX_R_SQUARED 0.986, PBLUC_HILL_SLOPE 18.4, PBLUC_R_SQUARED 0.669, read-out: LUCIFERASE INFECTION ASSAY - IC50): 6.11
O=C(CCCSc1nc2ccccc2s1)Nc1ccc(S(=O)(=O)NC2=NCCCCC2)cc1	> 10	< 5.00	
COc1ccc(CN2C(=O)N(CC(C)C)C3(CCN(Cc4c[nH]c5ccccc45)CC3)C2=O)cc1	> 6.95	5.17	
Cc1cc(C(=O)N2CCc3sccc3C2)c2c(C)noc2n1	> 10		pIC50 (PBLUC_HILL_SLOPE 3.72, PBLUC_R_SQUARED 0.0188, read-out: LUCIFERASE INFECTION ASSAY - IC50): < 5.00
CCOc1ccccc1NC(=O)c1cc(CC(C)C)oc1C	> 10.9	< 4.96	
COc1ccc(Nc2nc(N)nc(CSc3nc4ccccc4o3)n2)cc1	3.53		pIC50 (PBLUC_HILL_SLOPE 12.3, PBLUC_R_SQUARED 0.778, read-out: LUCIFERASE INFECTION ASSAY - IC50): 5.53
CC(=O)Nc1ccc(Nc2cc3c(cn2)nc(-c2ccccc2)n3C)cc1	3.77		pIC50 (HEPG2TOX_HILL_SLOPE 4.43, HEPG2TOX_R_SQUARED 0.848, PBLUC_HILL_SLOPE 16.8, PBLUC_R_SQUARED 0.556, read-out: LUCIFERASE INFECTION ASSAY - IC50): 5.48
CNc1snc(C)c1C(=O)NCC(c1cccs1)c1c[nH]c2ccccc12 (stereo unspecified)	9.68		pIC50 (PBLUC_HILL_SLOPE 9.74, PBLUC_R_SQUARED 0.4, read-out: LUCIFERASE INFECTION ASSAY - IC50): 5.11
CCSc1nc(SCCCN(C)C)c2c3c(sc2n1)COC(C)(C)C3	> 8.3	< 5.08	
CN(C)C(=O)c1ccc(-c2ccnc3n[nH]c(-c4cccc(Cl)c4)c23)cc1	> 10	5.33	
COc1ccccc1Oc1ccc(NC(C)C(=O)N2CCCC2)cc1 (stereo unspecified)	> 10		pIC50 (PBLUC_HILL_SLOPE 21.7, PBLUC_R_SQUARED 0.137, read-out: LUCIFERASE INFECTION ASSAY - IC50): 5.01
C/C(=N\NC(N)=S)c1ccc(OCc2ncc(C(F)(F)F)cc2Cl)cc1	4.57		pIC50 (FFLUC_HILL_SLOPE 17.3, FFLUC_R_SQUARED 0.0449, HEPG2TOX_HILL_SLOPE 9.24, HEPG2TOX_R_SQUARED 0.314, PBLUC_HILL_SLOPE 1.92, PBLUC_R_SQUARED 0.719, read-out: LUCIFERASE INFECTION ASSAY - IC50): 5.84
CN(C)c1ccc(-c2cc3c(cn2)nc(Nc2ccccc2)n3C)cc1	4.23		pIC50 (HEPG2TOX_HILL_SLOPE 15.7, HEPG2TOX_R_SQUARED 0.892, PBLUC_HILL_SLOPE 14.7, PBLUC_R_SQUARED 0.425, read-out: LUCIFERASE INFECTION ASSAY - IC50): 5.44
Cc1onc(-c2c(Cl)cccc2Cl)c1C(=O)Nc1ccccc1C(=O)NCc1c(F)cccc1Cl	> 6.19	< 5.21	
COc1ccc(Cn2c3c(c4ccccc4c2=O)C(=O)c2ccccc2-3)cc1	> 8.98		pIC50 (HEPG2TOX_HILL_SLOPE 4, HEPG2TOX_R_SQUARED 0.749, PBLUC_HILL_SLOPE 2.74, PBLUC_R_SQUARED 0.283, read-out: LUCIFERASE INFECTION ASSAY - IC50): 5.10
NC(c1csc(Nc2ccc(C(F)(F)F)cn2)n1)C1CCCCC1 (stereo unspecified)	> 9.26		pIC50 (PBLUC_HILL_SLOPE 4.28, PBLUC_R_SQUARED 0.42, read-out: LUCIFERASE INFECTION ASSAY - IC50): 5.12
Oc1cc(C(F)(F)F)nc2c(C(F)(F)F)cccc12	5.16		pIC50 (FFLUC_HILL_SLOPE 0.264, FFLUC_R_SQUARED 0.18, PBLUC_HILL_SLOPE 9.49, PBLUC_R_SQUARED 0.416, read-out: LUCIFERASE INFECTION ASSAY - IC50): 5.39
